In one data set the test system is NCM460. Kind of data set: In vitro cytotoxicity, MTT assay. Format: cell-based, human. Conditions: 72 h incubation. On the technique in general: Tetrazolium dyes change colour on reduction, which living cells bring about.
Another data set relates to HCT116. As to the kind of experiment: In vitro cytotoxicity, MTT assay. Format: cell-based, human. Conditions: for IC50: HCT116, MTT assay, 72 h incubation.
For the next data set, the system named is A2780. Kind of data set: In vitro cytotoxicity, MTT assay. In kind it is cell-based, human. Conditions: for IC50: MTT assay, 72 h incubation.
The subject of a further data set is HeLa. As to the kind of experiment: In vitro cytotoxicity, MTT assay. In kind it is cell-based, human. The source says: Therefore, it was anticipated that a not too high loading of DOX into nanostructures of 1 could be used for anti-cancer purposes in order to maintain low toxicity toward non-tumorigenic cells. Together with the higher encapsulation efficiency of DOX, NC1 was selected for investigations of the in vitro cytotoxicity. […] The in vitro cytotoxicity of NC1 was also compared to that of the mixture of nanostructures of 1 and DOX. […] The observed cytotoxicity was further evaluated by the combination index (CI), which can describe the effect of drug combination. […] It is shown that dose and effect are interchangeable via defined parameters. This general equation for the single drug effect has been extended to the multiple drug effect equation for n drugs. These equations provide the theoretical basis for the combination index (CI)-isobologram equation that allows quantitative determination of drug interactions, where CI<1, =1, and >1 indicate synergism, additive effect, and antagonism, respectively. [Chou, et al. Pharmacol. Rev. 2006, 58, 621] […] The synergistic effect can originate from different molecular targets and/or mechanism of action of DOX from that of gold(III) porphyrin complexes. […] These different modes of action would allow supra-additive effect on killing HeLa cells by the co-delivery.

For the next data set, the system named is A2780cis. As to the kind of experiment: In vitro cytotoxicity, MTT assay. Format: cell-based, human. Conditions: for IC50: MTT assay, 72 h incubation.
The test system of a further data set is CCD-19Lu. As to the kind of experiment: In vitro cytotoxicity, MTT assay. The settings on record: 72 h incubation. In kind it is cell-based.
For data set [1], the system named is A2780adr. The settings on record: for IC50: MTT assay, 72 h incubation.
For another data set, the system named is NCI-H460. As to the kind of experiment: In vitro cytotoxicity, MTT assay. In kind it is cell-based, human. Conditions: for IC50: MTT assay, 72 h incubation.
In the next data set the test system is MIHA. Kind of data set: In vitro cytotoxicity, MTT assay.
For a further data set, the system named is non-tumorigenic cells. Kind of data set: In vitro cytotoxicity, MTT assay, non-tumorigenic cells. Format: cell-based. Conditions: 72 h.
The test system of another data set is A2780adr cells. As to the kind of experiment: Cellular uptake of DOX, cell lysates by UPLC-QTOF-MS. In kind it is cell-based, human. The settings on record: for Uptake of DOX by A2780adr cells: [DOX]=0.5 μM.
In data set [2] the test system is A2780adr. Kind of data set: cells. The settings on record: Homo sapiens, A2780 ADR, 72 h.
The test system of the next data set is HCT116 cells. As to the kind of experiment: Induction of apoptosis, CellEvent Caspase-3/7 Green (microscopy and flow cytometry). Format: cell-based, human. Conditions: NC1 ([1]=3.5 μM and [DOX]=0.5 μM) or DOX alone.
Where [3] appears, read: MTT assay, 72 h incubation, read-out: IC50.
The mark [4] stands for this setting: MIHA, MTT assay, 72 h incubation.
Setting [5] is: IC50 of MIHA cells/IC50 of cancer cells.
[6] abbreviates: IC50 of NCM460 cells/IC50 of cancer cells.

Structures are written as SMILES. Read-outs that look alike come from different tables or passages of the source.

Usually IC50 stands for the concentration that inhibits the measured activity by half. With `N.N.[Cl][Pt][Cl]` [Cisplatin, cisplatin, reference compound], the IC50 came out at 12300 ± 900 nM with NCM460; 15700 ± 2200 nM in the data set on HCT116; 2600 ± 300 nM with A2780; 19800 ± 1400 nM in the data set with HeLa (setting [3]); 8400 ± 50 nM in the data set on A2780cis (A2780cis); 49100 ± 5400 nM with CCD-19Lu. In addition, the IC50 in the data set with A2780adr [1] (A2780adr) was 12700 ± 1900 nM; in the data set with NCI-H460 it was 65400 ± 5000 nM; in the data set with MIHA (setting [4]), 17600 ± 1300 nM. The “Resistance found in A2780cis” value in the data set with A2780cis (Determined by IC50 of A2780cis cells/IC50 of A2780 cells) was 0.31. Moreover, the “Resistance found in A2780adr” value in the data set with A2780adr [1] (Determined by IC50 of A2780adr cells/IC50 of A2780 cells) is 0.20.
Consider `O=C(O)CCCCCCCCC(=O)Oc1ccc(-c2c3nc(c(-c4ccccc4)c4ccc([n-]4)c(-c4ccccc4)c4nc(c(-c5ccccc5)c5ccc2[n-]5)C=C4)C=C3)cc1.[Au+3].[Cl-]` [A10], for which the IC50 in the data set with HeLa (setting [3]) was 410 ± 50 nM; with A2780adr [1] (A2780adr) it was 520 ± 60 nM; in the data set on NCI-H460 it was 180 ± 4 nM; in the data set with MIHA (setting [4]) it was 610 ± 50 nM. In the data set with non-tumorigenic cells, the “IC50 for non-tumorigenic cells” value is listed as “submicromolar range”.
As to `Oc1ccc(-c2c3nc(c(-c4ccccc4)c4ccc([n-]4)c(-c4ccccc4)c4nc(c(-c5ccccc5)c5ccc2[n-]5)C=C4)C=C3)cc1.[Au+3].[Cl-]` [A4], the IC50 is 380 ± 70 nM in the data set on HeLa (setting [3]), 530 ± 140 nM with A2780adr [1] (A2780adr), 150 ± 3 nM in the data set on NCI-H460 and 570 ± 40 nM in the data set on MIHA (setting [4]). In the data set with non-tumorigenic cells, the “IC50 for non-tumorigenic cells” value is “submicromolar range”.
Turning to `COc1cccc2c1C(=O)c1c(O)c3c(c(O)c1C2=O)C[C@@](O)(C(=O)CO)C[C@@H]3O[C@H]1C[C@H](N)[C@H](O)[C@H](C)O1` [DOX, doxorubicin], the “Toxicity (of DOX) toward cancer cells compared to that toward MIHA cells” value was 0.7 in the data set on HCT116 (HCT-116, IC50 of MIHA cells/IC50 of cancer cells); 2.2 in the data set on A2780 (setting [5]); 0.2 in the data set with HeLa (IC50 of MIHA cells/IC50 of cancer cells, cytotoxicity of 1 in NC1 not considered); 1.9 with A2780cis (A2780cis, IC50 of MIHA cells/IC50 of cancer cells); 0.1 in the data set on A2780adr [1] (A2780adr, IC50 of MIHA cells/IC50 of cancer cells); 2.8 with NCI-H460 (setting [5]). Besides, the “Toxicity (of DOX) toward cancer cells compared to that toward NCM460 cells” value in the data set on HCT116 (HCT-116, IC50 of NCM460 cells/IC50 of cancer cells) is 7.1; in the data set on A2780 (setting [6]), 22.2; in the data set with HeLa (IC50 of NCM460 cells/IC50 of cancer cells, cytotoxicity of 1 in NC1 not considered) it was 1.8; with A2780cis (A2780cis, IC50 of NCM460 cells/IC50 of cancer cells), 18.5; in the data set on A2780adr [1] (A2780adr, IC50 of NCM460 cells/IC50 of cancer cells), 1.5; with NCI-H460 (setting [6]), 27.8. Besides, the IC50 in the data set on HCT116 (Homo sapiens, HCT-116) was determined as 140 ± 20 nM; in the data set on A2780 (Homo sapiens) it was 45 ± 7 nM; with HeLa (Homo sapiens, 72 h, read-out: DOX at IC50) it was 570 nM; with HeLa (Homo sapiens, 72 h, read-out: Total dose at IC50) it was 570 nM; with HeLa (Homo sapiens, MTT assay, 72 h incubation, read-out: IC50), 570 ± 60 nM; in the data set on A2780cis (Homo sapiens, A2780cis), 54 ± 5 nM. Also, the IC50 with A2780adr [2] worked out at 680 ± 50 nM; in the data set with A2780adr [2] (read-out: DOX at IC50), 700 nM; with A2780adr [2] (read-out: Total dose at IC50), 700 nM; in the data set on NCI-H460 (Homo sapiens) it was 36 ± 10 nM; with MIHA (72 h) it was 100 ± 10 nM; in the data set on MIHA (72 h, read-out: DOX at IC50), 100 nM. The IC50 in the data set on MIHA (72 h, read-out: Total dose at IC50) was found to be 100 nM. In addition, the entries for the “DOX uptake smaller than after incubation of NC1” value with A2780adr cells (14 h) and in the data set with A2780adr cells (24 h) were 1.8 fold and 3.0 fold, respectively. Besides, the “Uptake of DOX by A2780adr cells” value with A2780adr cells (incubation 14 h) was 33.9 μg per g of proteins; in the data set on A2780adr cells (incubation 24 h) it was 27.8 μg per g of proteins. Further, the “Lower cytotoxicity toward A2780adr cells than non-resistant A2780 cells” value with A2780adr [1] (from IC50 of Table 1) was found to be 15 fold. For the same compound, the “Incubation time for induction of apoptosis of HCT116 cells” value with HCT116 cells turned out to be 30 h.

These data come from US11135310B2, “Gold porphyrin-PEG conjugates and methods of use” (The University of Hong Kong, priority 2015, dated 2021).
